Assay results published in patent publication US20030134779A1, “Method and composition for treatment and/or prevention of antibiotic-resistant microorganism infections” (priority 2002, published 2003).

Legend:
S. aureus strains = experiment: MIC / FIC determination, summary over strains; format: cell-based, Staphylococcus aureus; conditions: with 0.5 mg/ml LF; all tested strains except ATCC 25923 and SHY97-3906 (needed 1 mg/ml LF)
From the text: Staphylococcus aureus strains ATCC 25923 and 6538 and Escherichia coli ATCC 25922 were obtained from the American Type Culture Collection. Eight bovine mastitis clinical isolates of S. aureus (SHY97-3906, -3923, -4085 -4242, -4320 and -4343, RFT-1 and RFT-5) and one isolate of E. coli SHY97-3923-2 and one isolate of Kiebsiella pneumoniae SHY99-723-1 were kindly provided by the Laboratoire Provincial de Pathologie Animale of St-Hyacinthe and of Rock-Forest (Quebec, Canada), respectively. Nine β-lactam antibiotics resistant S. aureus strains (PC-1, NCTC 9789, 2076, 22260, ST79/741, 3804, RN9, FAR8, and FAR10) were obtained from Vanderbilt University School of Medicine (Nashville, Tenn., USA). […]
The MICs were determined by both macrodilution (1 ml/tube) and microdilution (100 μl/well) in sterile 96 well microtiter plates (International Nunc, Napierville, Ill.) techniques in three separate experiments according to the National Committee for Clinical Laboratory Standards (1992 and 1999) in three separate experiments. […] Effect of LF combination with antibiotic on MICs were determined by adding 0.5 mg or 1 mg/ml of LF to each antibiotic dilution. […] Effect of LF or LFC combination with antibiotic on MIC was also determined by checkerboard method using 96 well microtiter plates. […] The fractional inhibitory concentration (FIC) was calculated as described by Eliopoulos and Moellering (1991). […]

[1] = tested on: S. aureus strains SHY97-4242 and RFT-5; experiment: Bacterial growth in MHB; format: cell-based, Staphylococcus aureus
Experimental: The effect of LF or LFC at concentration sub-MICs alone or in combination with sub-MICs of antibiotics on bacterial growth rate of S. aureus, E. coli and K. pneumoniae was determined by monitoring bacterial cultures in MHB with the O.D.600 nm or by the count of colony forming unit per ml (cfu/ml). A volume of 2.5 ml of overnight cultures in MHB adjusted to 0.5-1 McFarland standard in saline were used to inoculate a final volume of 25 ml of fresh MHB containing the desired concentration of tested compounds. All flasks were then incubated at 37° C. with agitation (200 rpm) for 9 h. Aliquots were removed every hour to determine the culture turbidity using the spectrophotometer Philips PU 8800 (Pye Unican Ltd, Cambridge, UK). The combined antibiotic effect on bacterial growth was also determined using concentrations of LF in the presence of different concentrations of antibiotics. Briefly, a volume of 3 ml of fresh MHB containing desired concentration of drugs was adjusted to an optical density of 0.4 at 540 nm after an overnight culture. The culture was then incubated at 37° C with agitation (200 rpm). After incubation, aliquots were removed to determine the culture turbidity (OD540nm) or cfu/ml. To determine the influence of the level of iron on of the growth inhibition by the test compound, 5 μM of FeCl3 were added to the media.

[2] = tested on: β-lactamase activity of S. aureus SHY97-4320; experiment: β-lactamase activity, nitrocefin assay, bovine LF/LFC; format: cell-based; conditions: 8-μg/ml penicillin G alone
Experimental: The effects of sub-MICs of LF (1 mg/ml), LFC (32 and 64 μg/ml) alone or in combination with ampicillin (4μg/ml) or penicillin G (8 μg/ml) were evaluated on the β-lactamase activity of S. aureus strains SHY97-4320 and PC-1. The chromogenic cephalosporin nitrocefin (Becton Dickinson, Microbiology, Cockeysville, Md.) was used in a quantitative spectrophotometric assay. Bacterial cells were first exposed during 4 and 22-h to drugs in broth. The number of bacteria (cfu/ml) were determined and cells aliquots were centrifuged at each point in time. The pellets were suspended in 10 mM HEPES buffer (pH 7.4) to an OD415 nm of 1 for PC-1 and 2 for SHY97-4320. Nitrocefin (100 μM) was added to 100 μl of cells in a final volume of 1 ml. Hydrolysis was measured at 486 nm on spectrophotometer. β-lactamase activity was expressed as ΔO.D.486 nm/min and corrected for bacterial OD.

CC1(C)S[C@@H]2[C@H](NC(=O)Cc3ccccc3)C(=O)N2[C@H]1C(=O)O [penicillin G, Penicillin G]
increase of inhibitory activity of penicillin (S. aureus strains): two-fold
effect of addition of iron on growth inhibition ([1]; combination of penicillin to LF): did not affect
growth inhibitory activity of penicillin ([1]; in the presence of LF, P<0.01): enhanced
growth ([1]; penicillin G alone, P<0.001): reduced the growth
β-lactamase activity [2]: a large increase in β-lactamase activity
